Results published in patent US10899738B2 (THE REGENTS OF THE UNIVERSITY OF MICHIGAN, priority 2016, dated 2021).
Read-outs that look alike come from different tables or passages of the source.

Columns and labels:
[1] = Cell growth inhibition, CellTiter-Glo Luminescent Cell Viability Assay; format: cell-based
Description: Cell growth inhibitory activity of representative menin inhibitors was determined using CellTiter-Glo® Luminescent Cell Viability Assay. Cells were seeded in 384-well white opaque cell culture plates at a density of 2,000 cells/well with serially diluted compounds and incubated at 37° C. in an atmosphere of 95% air and 5% CO2 for 4 days. Cell viability was determined using the CellTiter-Glo® Luminescent Cell Viability Assay Kit (Promega, Madison, Wis.) according to the manufacture's instruction. Briefly, a volume of CellTiter-Glo® Reagent equal to the volume of cell culture medium was added to each well, and then the plates were incubated at room temperature for 10-20 minutes. The luminescent signal was measured using a Tecan Infinite M1000 multimode microplate reader (Tecan, Morrisville, N.C.). The half maximal inhibitory concentration (IC50) was calculated using the GraphPad Prism 5 software (GraphPad Software, La Jolla, Calif.).

menin protein = menin protein (Homo sapiens (Human), UniProt O00255); experiment: biochemical; format: binding; conditions: FP competitive binding; menin protein 4 nM, FAM-MM2 probe 2 nM; read-out: Menin Binding Affinity IC50
Chain of menin protein (O00255 whole entry): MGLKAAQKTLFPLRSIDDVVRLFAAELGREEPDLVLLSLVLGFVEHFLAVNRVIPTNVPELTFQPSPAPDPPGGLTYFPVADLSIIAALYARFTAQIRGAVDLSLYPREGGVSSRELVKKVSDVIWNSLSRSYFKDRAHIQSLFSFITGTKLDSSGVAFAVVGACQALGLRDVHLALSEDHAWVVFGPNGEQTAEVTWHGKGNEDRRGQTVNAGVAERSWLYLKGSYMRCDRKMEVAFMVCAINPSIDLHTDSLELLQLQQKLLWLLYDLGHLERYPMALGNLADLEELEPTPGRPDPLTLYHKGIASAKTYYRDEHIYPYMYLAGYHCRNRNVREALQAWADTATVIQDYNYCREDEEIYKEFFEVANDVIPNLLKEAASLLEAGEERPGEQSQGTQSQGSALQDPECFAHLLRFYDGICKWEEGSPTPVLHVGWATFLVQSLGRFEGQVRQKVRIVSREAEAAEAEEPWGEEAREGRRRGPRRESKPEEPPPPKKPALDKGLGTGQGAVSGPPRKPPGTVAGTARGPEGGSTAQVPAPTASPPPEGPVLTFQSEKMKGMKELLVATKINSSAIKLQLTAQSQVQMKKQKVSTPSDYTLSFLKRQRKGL
In short: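 Competitive fluorescence polarization assay using FAM-labelled MLL1 peptide probe FAM-MM2 (2 nM final) preincubated with menin (4 nM final) in PBS with 0.02% bovine γ-globulin, 4% DMSO and 0.01% Triton X-100. Compounds were added and incubated 30 min at room temperature. IC50 came from nonlinear regression of competition curves, with Ki also derived.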

[2] = MOLM-13, 96 h, read-out: Cell Growth Inhibition IC50 (μM) MOLM13, MOLM13 cells, 4 days, CellTiter-Glo
[3] = MV4-11, 96 h, read-out: Cell Growth Inhibition IC50 (μM) MV4, 11, MV4, 11 cells, 4 days, CellTiter-Glo

SMILES	IC50 [1, 2] [µM]	IC50 [1, 3] [µM]	IC50 (menin protein) [nM]
COC(=O)N[C@H]1CCC[C@@H]1C(C#N)(c1ccccc1)C1CCN(CC2CN(c3ccc(S(=O)(=O)c4ccncc4)cc3)C2)CC1 (mixture of isomers) [Cpd. No. 345, methyl (rac-(1S,2R)-2-(cyano(phenyl)(1-((1-(4-(pyridin-4-ylsulfonyl)phenyl)azetidin-3-yl)methyl)piperidin-4-yl)methyl)cyclopentyl)carbamate]	0.71	0.54	11
COC(=O)N[C@H]1CCC[C@@H]1C(C#N)(c1ccccc1)C1CCN(CC2CN(c3ccc(S(=O)(=O)c4cnn(C)c4)cc3)C2)CC1 (mixture of isomers) [Cpd. No. 349, methyl (rac-(1S,2R)-2-(cyano(1-((1-(4-((1-methyl-1H-pyrazol-4-yl)sulfonyl)phenyl)azetidin-3-yl)methyl)piperidin-4-yl)(phenyl)methyl)cyclopentyl)carbamate]	0.87	0.44	15
CC(=O)O[C@H]1CCC[C@@H]1C(C#N)(c1ccccc1)C1CCN(CC2CN(c3ccc(S(=O)(=O)c4ccncc4)cc3)C2)CC1 (mixture of isomers) [compound 185, rac-(1S,2R)-2-(cyano(phenyl)(1-((1-(4-(pyridin-4-ylsulfonyl)phenyl)azetidin-3-yl)methyl)piperidin-4-yl)methyl)cyclopentyl acetate]	0.783 ± 0.474	0.624 ± 0.165	7
CC(=O)O[C@H]1CCC[C@@H]1C(C#N)(c1ccccc1)C1CCN(CC2CN(c3ccc(S(=O)(=O)C4CC4)cc3)C2)CC1 (mixture of isomers) [compound 187, rac-(1S,2R)-2-(cyano(1-((1-(4-(cyclopropylsulfonyl)phenyl)azetidin-3-yl)methyl)piperidin-4-yl)(phenyl)methyl)cyclopentyl acetate]	1.9 ± 0.7	1.2 ± 0.3	18
CCC(=O)O[C@H]1CCC[C@@H]1C(C#N)(c1ccccc1)C1CCN(CC2CN(c3ccc(S(=O)(=O)c4ccncc4)cc3)C2)CC1 (mixture of isomers) [compound 195, rac-(1S,2R)-2-(cyano(phenyl)(1-((1-(4-(pyridin-4-ylsulfonyl)phenyl)azetidin-3-yl)methyl)piperidin-4-yl)methyl)cyclopentyl propionate]	1.5	0.991	10
CC(=O)O[C@H]1CCC[C@@H]1C1(C2CCN(CC3CN(c4ccc(S(=O)(=O)c5ccnc(C)c5)cc4)C3)CC2)CN(C)Cc2ccccc21 (mixture of isomers) [compound 201, rac-(1S,2R)-2-(2-methyl-4-(1-((1-(4-((2-methylpyridin-4-yl)sulfonyl)phenyl)azetidin-3-yl)methyl)piperidin-4-yl)-1,2,3,4-tetrahydroisoquinolin-4-yl)cyclopentyl acetate]	0.399 ± 0.153	0.09 ± 0.051	5
CC(=O)O[C@H]1CCC[C@@H]1C1(C2CCN(CC3CN(c4ccc(S(=O)(=O)C5CC5)cc4)C3)CC2)CN(C)Cc2ccccc21 (mixture of isomers) [compound 203, rac-(1S,2R)-2-(4-(1-((1-(4-(cyclopropylsulfonyl)phenyl)azetidin-3-yl)methyl)piperidin-4-yl)-2-methyl-1,2,3,4-tetrahydroisoquinolin-4-yl)cyclopentyl acetate]	0.687	0.234	9
CC(=O)O[C@H]1CCC[C@@H]1C1(C2CCN(CC3CN(c4ccc(S(=O)(=O)c5ccncc5)cc4)C3)CC2)CN(C)Cc2ccccc21 (mixture of isomers) [compound 206, rac-(1S,2R)-2-(2-methyl-4-(1-((1-(4-(pyridin-4-ylsulfonyl)phenyl)azetidin-3-yl)methyl)piperidin-4-yl)-1,2,3,4-tetrahydroisoquinolin-4-yl)cyclopentyl acetate]	0.411 ± 0.3	0.119 ± 0.048	3
N#CC(c1ccccc1)(C1CCN(CC2CN(c3ccc(S(=O)(=O)c4ccncc4)cc3)C2)CC1)[C@H]1CCC[C@@H]1OC(N)=O (mixture of isomers) [compound 211, rac-(1S,2R)-2-(cyano(phenyl)(1-((1-(4-(pyridin-4-ylsulfonyl)phenyl)azetidin-3-yl)methyl)piperidin-4-yl)methyl)cyclopentyl carbamate]	0.546	0.302	9
CN1Cc2ccccc2C(C2CCN(CC3CN(c4ccc(S(=O)(=O)c5ccncc5)cc4)C3)CC2)([C@H]2CCC[C@@H]2OC(N)=O)C1 (mixture of isomers) [compound 219, rac-(1S,2R)-2-(2-methyl-4-(1-((1-(4-(pyridin-4-ylsulfonyl)phenyl)azetidin-3-yl)methyl)piperidin-4-yl)-1,2,3,4-tetrahydroisoquinolin-4-yl)cyclopentyl carbamate]	0.236	0.074 ± 0.011	3
N#CC(c1ccccc1)(C1CCN(CC2CN(c3ccc(S(=O)(=O)c4ccccc4)cc3)C2)CC1)[C@H]1CCC[C@@H]1OC(N)=O (mixture of isomers) [compound 223, rac-(1S,2R)-2-(cyano(phenyl)(1-((1-(4-(phenylsulfonyl)phenyl)azetidin-3-yl)methyl)piperidin-4-yl)methyl)cyclopentyl carbamate]	0.49	0.29	14
CNC(=O)O[C@H]1CCC[C@@H]1C(C#N)(c1ccccc1)C1CCN(CC2CN(c3ccc(S(=O)(=O)c4ccccc4)cc3)C2)CC1 (mixture of isomers) [compound 225, rac-(1S,2R)-2-(cyano(phenyl)(1-((1-(4-(phenylsulfonyl)phenyl)azetidin-3-yl)methyl)piperidin-4-yl)methyl)cyclopentyl methylcarbamate]	0.82	0.24	9
CNC(=O)O[C@H]1CCC[C@@H]1C(C#N)(c1ccccc1)C1CCN(CC2CN(c3ccc(S(=O)(=O)c4nn(C)cc4Br)cc3)C2)CC1 (mixture of isomers) [compound 228, rac-(1S,2R)-2-((1-((1-(4-((4-bromo-1-methyl-1H-pyrazol-3-yl)sulfonyl)phenyl)azetidin-3-yl)methyl)piperidin-4-yl)(cyano)(phenyl)methyl) cyclopentyl methylcarbamate]	0.25	0.18	4
CNC(=O)O[C@H]1CCC[C@@H]1C(C#N)(c1ccccc1)C1CCN(CC2CN(c3ccc(S(=O)(=O)c4ccn(C)n4)cc3)C2)CC1 (mixture of isomers) [compound 230, rac-(1S,2R)-2-(cyano(1-((1-(4-((1-methyl-1H-pyrazol-3-yl)sulfonyl)phenyl)azetidin-3-yl)methyl)piperidin-4-yl)(phenyl)methyl) cyclopentyl methylcarbamate]	0.25	0.092	7
CNC(=O)O[C@H]1CCC[C@@H]1C(C#N)(c1ccccc1)C1CCN(CCCOc2ccc(C#N)cc2)CC1 (mixture of isomers) [compound 232, rac-(1S,2R)-2-(cyano(1-(3-(4-cyanophenoxy)propyl)piperidin-4-yl)(phenyl)methyl)cyclopentyl methylcarbamate]	0.94	0.3	20
CNC(=O)O[C@H]1CCC[C@@H]1C(C#N)(c1ccccc1)C1CCN(C2CCN(c3ccc(S(=O)(=O)c4ccccc4)cc3)CC2)CC1 (mixture of isomers) [compound 234, rac-(1S,2R)-2-(cyano(phenyl)(1′-(4-(phenylsulfonyl)phenyl)-[1,4′-bipiperidin]-4-yl)methyl)cyclopentyl methylcarbamate]	6.41	1.11	50
CNC(=O)O[C@H]1CCC[C@@H]1C(C#N)(c1ccccc1)C1CCN(CC2CN(c3ccc(S(=O)(=O)c4cnn(C)c4)cc3)C2)CC1 (mixture of isomers) [compound 240, rac-(1S,2R)-2-(cyano(1-((1-(4-((1-methyl-1H-pyrazol-4-yl)sulfonyl)phenyl)azetidin-3-yl)methyl)piperidin-4-yl)(phenyl)methyl) cyclopentyl methylcarbamate]	0.54	0.2	9
CC(=O)N[C@H]1CCC[C@@H]1C(C#N)(c1ccccc1)C1CCN(CC2CN(c3ccc(S(=O)(=O)c4ccncc4)cc3)C2)CC1 (mixture of isomers) [compound 263, rac-N-((1S,2R)-2-(cyano(phenyl)(1-((1-(4-(pyridin-4-ylsulfonyl)phenyl)azetidin-3-yl)methyl)piperidin-4-yl)methyl)cyclopentyl) acetamide]	1.4	0.254	10
CNC(=O)N[C@H]1CCC[C@@H]1C(C#N)(c1ccccc1)C1CCN(CC2CN(c3ccc(S(=O)(=O)c4ccncc4)cc3)C2)CC1 (mixture of isomers) [compound 269, rac-1-((1S,2R)-2-(cyano(phenyl)(1-((1-(4-(pyridin-4-ylsulfonyl)phenyl)azetidin-3-yl)methyl)piperidin-4-yl)methyl)cyclopentyl)-3-methylurea]	1.73	0.273	9
CC(=O)N[C@H]1CCC[C@@H]1C1(C2CCN(CC3CN(c4ccc(S(=O)(=O)c5ccncc5)cc4)C3)CC2)CN(C)Cc2ccccc21 (mixture of isomers) [compound 271, rac-N-((1S,2R)-2-(2-methyl-4-(1-((1-(4-(pyridin-4-ylsulfonyl)phenyl)azetidin-3-yl)methyl)piperidin-4-yl)-1,2,3,4-tetrahydroisoquinolin-4-yl)cyclopentyl)acetamide]	0.717 ± 0.002	0.123 ± 0.043	5
